Test results taken from article PMC11601558, “SLC6A19 inhibition facilitates urinary neutral amino acid excretion and lowers plasma phenylalanine” (JCI Insight, 2024).
Where “and” joins values, the source holds several entries; their conditions need not be identical. Equal entries are not always repeated. Values belong to the molecule of their own block, whether it stands above or below them.

Columns and labels:
[1] = JN-170 plasma pharmacokinetics in C57Bl/6J mice, single oral dose; format: in vivo, mouse; design: JN-170 plasma level (Fig 2a): unit not given here
Procedure: Male homozygous BTBR-Pah<enu2>/J (Pah^enu2) aged 10–13 weeks were purchased from Jackson Laboratory (no. 002232). Immediately before dosing, each animal’s bladder was manually emptied and a plasma sample was drawn. Animals were dosed by oral gavage with vehicle (10% DMSO, 20% 2-hydroxypropyl-β-cyclodextrin [Sigma-Aldrich]) followed by a 1-week washout prior to dosing with JN-170 at doses ranging from 50 to 250 mg/kg. Following dosing with vehicle or JN-170, animals were individually placed in metabolic cages to collect urine samples. After collection of each urine sample, cages were rinsed with ultra-pure water to recover residual analytes. Blood samples were collected predose as well as 1, 3, 8, 12, and 24 hours after dosing with vehicle or JN-170 into tubes with EDTA as a […], and plasma was separated by centrifuging samples at 2,200g for 5 minutes at 4°C. Throughout the study, mice had access to food and water ad libitum. Plasma and urine samples were stored at –80°C until processing.Ten-week-old male WT C57Bl/6J animals (Si Bei Fu Laboratory Animal Technology Co. Ltd.) were dosed either with vehicle or 50–250 mg/kg JN-170 by oral gavage and blood and urine samples were collected as described. All animals had unrestricted access to food and water during the study; C57Bl/6J were kept on rodent maintenance diet from Beijing Keao Xieli, Pah^enu2 mice were kept on Teklad diet no. T.2018.
Plasma sample analyses were carried out by liquid chromatography tandem mass spectrometry (LC-MS/MS). Plasma samples were mixed 1:1 with carbamazepine or ^13C6-Phe as internal standards for JN-170 and Phe, respectively. Plasma proteins were precipitated by adding 4 volumes of acetonitrile (ACN) and 0.1% formic acid (FA) followed by centrifugation for 5 minutes at 2,100g. Supernatants were diluted 1:1 in ACN and 0.1% FA. For JN-170, a Waters HSS T3 reversed phase column was used for separation using a binary gradient of 0.1% FA in water (mobile phase A) to 0.1% in ACN (mobile phase B). At a flow rate of 0.8 mL/min, the mobile phase gradient increased from an initial 25% phase B to 95% phase B over 30 seconds. After, 1.5 minutes, the gradient was returned to 25% mobile phase B. For detection of Phe, an Acquity UPLC ethylene bridged hybrid (BEH) amide column was used, with a binary gradient of 10 mM ammonium acetate in 95:5:1 H2O:ACN:FA (mobile phase A) to 10 mM ammonium acetate in 95:5:1 ACN:H2O:FA (mobile phase B). At a flow rate of 0.5 mL/min, the mobile phase gradient changed from an initial 100% phase B to 50% phase B over 2.1 minutes. It was returned to 100% phase B after 4 minutes. Analytes were detected using a Sciex API-5500 in multiple reaction monitoring mode using an electrospray ionization source in the positive ion mode with the following ion transitions: m/z 435.2/84.1 (JN-170), 237.1/194.1 (carbamazepine), 166.1/120.1 (Phe), 172.2/126.2 for (^13C6-Phe). Analyte concentrations were calculated with a 1/×^2 linear regression over a concentration range of 1 or 2 to 5,000 ng/mL for JN-170 and 0.05–100 ng/mL for Phe.

human SLC1A5 = system: T1, human SLC1A5; assay: SLC1A5 glutamine transport assay; format: cell-based; conditions: for SLC1A5 transport (Fig S2 curve point): technical replicates
T1 construct: V5; expressed in transfected cells; host or cells: Flp-In T-Rex 293 cells (Thermo Fisher), tetracycline-induced
Procedure: Supplementary Materials and Methods
Flp-In T-Rex 293 cells (Thermo Fisher) were engineered to induciblyexpress either V5-tagged human SLC1A5, SLC6A8 or SLC7A5 co-expressed with myc-DDK-tagged SLC3A2. Cells expressing SLC 1A5 or SLC6A8 were maintained in either DMEM or DMEM/F12 media supplemented with 10% FBS, 100 U/mL penicillin, 100 μg/mL streptomycin, 200 μg/mL hygromycin, and 10 μg/mL blasticidin. For cells expressing SLC7A5/SLC3A2, the media was additionally supplemented with 300 μg/mL geneticin. All cell lines were maintained at 37°C and 5% CO2. For transport experiments, all cell lines were plated in poly-D-lysine-coated 96-well plates at a density of 35,000 cells/well. One day after plating, expression of SLC1A5, SLC6A8 or SLC7A5 was induced by adding tetracycline at a concentration of 1 μg/mL. Cells were induced for 24 h prior to transport assays.
SLC1A5 glutamine transport assay
Following a 24 h induction with tetracycline, cells were washed with LCIS before JNT -517 was added in 8-point concentration-response diluted in live cell imaging solution. D -serine was used as a positive control (32)at aconcentration of 40 mM and 0.5% DMSO was used as a negative control. Cells were incubated for 20 min at room temperature and then placed on ice for an additional 5 minutes. Then, a mixture of unlabeled L-glutamine (Millipore Sigma) spiked with 4.5 μCi/mL 2,3,4- 3H-labeled L-glutamine (American Radiolabeled Chemicals) was added at a final concentration of 100 μM. After a 5 min incubation on ice, cells were washed once with ice - […]
cold LCIS and lysed in scintillation fluid (PerkinElmer). The uptake of radioactive substrate was measured on a Microbeta2 microplate counter (PerkinElmer). […]

JN-170 plasma level (Fig 2a) ([1]; 50 mg/kg oral, 8 h, individual C57Bl/6 mice): 54.1
JN-170 plasma level (Fig 2a) ([1]; 100 mg/kg oral, 8 h, individual C57Bl/6 mice): 1010 and 870 and 627
concentration at 8 h ([1]; male, C57Bl/6J, mouse, plasma, oral, 250 mg/kg, 250 mg/kg oral, 8 h, individual C57Bl/6 mice, read-out: JN-170 plasma level (Fig 2a)): 3650 ng/mL
concentration at 12 h ([1]; male, C57Bl/6J, mouse, plasma, oral, 250 mg/kg, 250 mg/kg oral, 12 h, individual C57Bl/6 mice, read-out: JN-170 plasma level (Fig 2a)): 1760 ng/mL
bioavailability ([1]; male, C57Bl/6J, mouse, plasma, po): ~5%
Compound: N#Cc1ccc(-c2noc([C@]3(C(F)(F)F)CCN(C(=O)NCCC4(N)CC4)C3)n2)cc1 [JN-170]
JN-170 plasma level (Fig 2a) ([1]; 50 mg/kg oral, 1 h, individual C57Bl/6 mice): 4800 and 3580 and 3220 and 2280 and 3950 and 3920
JN-170 plasma level (Fig 2a) ([1]; 50 mg/kg oral, 3 h, individual C57Bl/6 mice): 1290 and 798 and 1160 and 1370 and 1130 and 1480
JN-170 plasma level (Fig 2a) ([1]; 100 mg/kg oral, 1 h, individual C57Bl/6 mice): 5300 and 7590 and 9540 and 8120 and 9150 and 8490
JN-170 plasma level (Fig 2a) ([1]; 100 mg/kg oral, 3 h, individual C57Bl/6 mice): 3330 and 3500 and 3620 and 5290 and 4430 and 4000
JN-170 plasma level (Fig 2a) ([1]; 200 mg/kg oral, 1 h, individual C57Bl/6 mice): 12900 and 18300 and 14800 and 17900 and 16400 and 14100
JN-170 plasma level (Fig 2a) ([1]; 200 mg/kg oral, 3 h, individual C57Bl/6 mice): 9760 and 9530 and 8870 and 8820 and 12800 and 12000
JN-170 plasma level (Fig 2a) ([1]; 200 mg/kg oral, 8 h, individual C57Bl/6 mice): 2260 and 1430 and 1410 and 2700 and 2480 and 4110
JN-170 plasma level (Fig 2a) ([1]; 250 mg/kg oral, 1 h, individual C57Bl/6 mice): 18600 and 13000 and 21300 and 27800 and 20500 and 19600
JN-170 plasma level (Fig 2a) ([1]; 250 mg/kg oral, 3 h, individual C57Bl/6 mice): 13400 and 8320 and 12600 and 16100 and 11000 and 13600

Compound: NC(=O)N1CCC[C@@H](N(C(=O)NCc2ccc(OC(F)(F)F)cc2F)C2CC2)C1 [JNT-517]
SLC1A5 transport (Fig S2 curve point) (human SLC1A5; 0.0160037 uM): 77.6 and 89.2
SLC1A5 transport (Fig S2 curve point) (human SLC1A5; 0.048011 uM): 105 and 120
SLC1A5 transport (Fig S2 curve point) (human SLC1A5; 0.144033 uM): 112 and 122
SLC1A5 transport (Fig S2 curve point) (human SLC1A5; 0.432099 uM): 125 and 131
SLC1A5 transport (Fig S2 curve point) (human SLC1A5; 1.2963 uM): 122 and 116
SLC1A5 transport (Fig S2 curve point) (human SLC1A5; 3.88889 uM): 125 and 121
SLC1A5 transport (Fig S2 curve point) (human SLC1A5; 11.6667 uM): 117 and 115
SLC1A5 transport (Fig S2 curve point) (human SLC1A5; 35 uM): 110 and 117
inhibition of SLC1A5 (human SLC1A5; concentrations up to 35 μM): did not inhibit
